The target in this assay is T1, ASFV topo II ATPase domain (African swine fever virus, UniProt A0A2X0THW2).
T1 construct: gene P1192R CDS
The following applies: Mg2+; ATP-binding site; 0.5 mM AMPPNP, 5 mM MgCl2, HEPES pH 7.5.

For `Nc1ncnc2c1ncn2[C@@H]1O[C@H](COP(=O)(O)OP(=O)(O)NP(=O)(O)O)[C@@H](O)[C@H]1O` [AMPPNP], the “X-ray crystal structure, 2.20 A” value was “crystal structure of the isolated ATPase domain from ASFV topo II in complex with AMPPNP”.

The values are drawn from PMC11005426 (mBio, 2024).
